The text below walks through data of patent publication US7592326B2, “Method for stimulating the immune, inflammatory or neuroprotective response” (priority 2004, dated 2009).

Data set [1] is classed as in vitro ADME, human. The procedure:
Commercially supplied pooled human serum (100 uL) (Cambrex Bio Science Walkersville, Inc.) was diluted in ion-exchanged water. An aliquot of the resulting human serum solution was subjected to HPLC analysis (conditions: COSMOSIL 5C18-AR-II column (4.6×200 mm); buffer A; buffer B, 80% acetonitrile in water; gradient, 0-10 min A 100%, 10-60 min A:B=100:0 to A:B=40:60 in 50 min; detection 254 nm, flow rate, 1.0 mL/min, temperature 40° C.). Separately, a 100 uM of c-di-GMP solution in human serum was prepared by adding 100 uL of a 500 uM c-di-GMP aqueous solution to a mixture of 390 uL of human serum and 10 uL of 40 mM 2-methylbenzimidazole (an internal standard for estimating the extent of decomposition of c-di-GMP) in methanol. An aliquot of the test solution was diluted immediately after the preparation solution and then heated at 100° C. for 5 min to quench activity of enzymes. The resulting test sample was subjected to HPLC analysis after 24 h treatment. Peaks that appeared in both analyses were compared. Results are based on 3 independent experiments.

For another data set, the system named is lung leukocytes. The experiment in a line: Lung leukocyte accumulation in Klebsiella-infected mice (lung digest, flow cytometry). Format: in vivo, Balb/c mice.
For data set [2], the system named is Primary hippocampal cells. Kind of data set: Staurosporine-induced cell death in primary hippocampal cultures (CellTiter 96 AQueous Assay). It counts as cell-based. The conditions noted are these: 100 nM, 22 h. The procedure: To assess the role of cyclic dinucleotides in modulating the neurological response, i.e., prevent cell death induced by staurosporine (STS) in primary hippocampal nerve cells, the effects of c-di-GMP on hippocampal cells was analyzed. Primary hippocampal cells were prepared according to previously described methods (Pereira et al., 1993). Briefly, the hippocampi were dissected from the brain of 18-day-old fetal rats. Following enzymatic and mechanical dissociation, cells were plated at a density of 100,000 cells/well in 96-well plates pre-coated with matrigel. At the 7th day after plating, cultures were subjected to one of the following treatments: (i) vehicle (24 h), (ii) STS (100 nM, 22 h), (iii) c-di-GMP (24 h), (iv) c-di-GMP (2 h) followed by c-di-GMP -plus-STS (22 h), (v) c-di-GMP -plus-STS (24 h), or (vi) STS (2 h) followed by c-di-GMP -plus-STS (22 h). At the end of the treatments, cell viability was analyzed using CellTiter 96® AQueous Assay (Promega). The assay involves the spectrophotometric measurement (at 490 nm) of the mitochondrial conversion of a tetrazolium dye into a colorful product. The absorbance of the assay correlates with the number of metabolically active cells.

Data set [3] has as its system human basophils. The experiment in a line: IL-3 dependent IL-13 secretion by human basophils. It counts as cell-based. The settings on record: for inhibition of IL-13 induced by IL-3: 18-20 h culture, FIG. 18A.
In data set [4] the test system is human basophils. The experiment in a line: IgE-dependent IL-4 secretion by human basophils. It counts as cell-based. Here is the method: (§1) Studies investigating the effect of the TBDMS-cGpGp analog on IgE-dependent IL-4 and histamine secretion induced by cross-linking were then performed. […] The inhibition of IL-4 was evident using the TBDMS-cGpGp analog as well as the cGpAp analog. Note that IgE-mediated histamine release is 90% complete within 20 minutes after stimulation- histamine is preformed and store in cytoplasmic granules. Although IL-4 is not preformed, it is rapidly generated denovo and secreted within 3-6 hours. In performing these experiments, a standard protocol for testing various anti-allergic drugs was used.
(§2) Specifically, the basophils were pretreated 15 minutes with the analogs before adding anti-IgE antibody for activation. Culture supernatants were analyzed for histamine and IL-4 three hours later. Thus, unlike the IL-13 induced by IL-3 during an 18-20 h culture, the release of histamine and IL-4 are far more rapid under IgE crosslinking conditions. It may be that inhibition would be greater if a greater pre-incubation time was performed with the analogs. Additional experiments will test different pre-incubation times to determine whether greater inhibition is observed. It is important to note that neither analog induced histamine release or IL-4 when used alone at the 50 uM concentration. T this is additional evidence that the inhibitory effect in not due to toxicity- histamine would most likely be released if the analogs were causing cell lysis.
IL-4 measurements were made in an experiment where the cyclic dinucleotide analogs were tested in a 1 hour pretreatment of basophils before activating with anti-IgE antibody. The control release to anti-IgE antibody was 262 pg/106 basophils (a relatively robust response being that cell responsiveness decreases the longer the wait before activating). Both the TBMDS-cGpGp and cGpAp analogs produced ˜30% inhibition at the 50μM concentration. […] It may be that overnight incubation with cyclic dinucleotide (similar to the IL-13 inhibition studies) would show even greater inhibition.

Data set [5] has as its system human basophils. The experiment in a line: IgE-dependent histamine release by human basophils. Format: cell-based. The settings on record: 15 minutes pretreatment. The procedure: as §1
as §2, with “T this is additional evidence that the inhibitory effect in not due to toxicity- histamine would most likely be released if the analogs were causing cell lysis.” left out

In a further data set the test system is pDC. Kind of data set: Cytokine secretion by pDC treated with TBDMS analog. It counts as cell-based, human. Here is the method:
Whether or not TBDMS would directly induce (or affect CpG-dependent) cytokine (IL-6, TNF-alpha, IL-10) secretion was then tested. […] IL-6 was not measured. […] Cells from one of the 3 subjects did secrete 100-200 pg/10^6 cells more TNF-alpha than the ˜400 secreted in medium alone. The same pattern was seen using these cells when the combination of CpG and TMDMS was used. However, these effects were not evident for the other two pDC preparations.

The subject of a further data set is basophils. The experiment in a line: SOCS expression in basophils (real-time PCR). It counts as cell-based, human. Here is the method:
Whether or not cyclic dinucleotides affected induction of SOCS (Suppresser Of Cytokine Synthesis) expression in basophils treated with CDN's was then tested. […] Cells were treated for 18 h, total RNA isolated, and RT-PCR performed for SOCS-1, SOCS-3, and the HPRT housekeeping gene. The fact that cGpGp also induces SOCS-1 may explain why some inhibition of IL-3-induced IL-13 secretion is observed with this cyclic dinucleotide analog. […] In the current IL-13 assay, the cyclic dinucleotide is added simultaneously with IL-3. The TBDMS-cGpGp likely induces SOCS-1 expression faster and thus accounts for greater inhibition of IL-13. […] While modest inhibitory activity with cGpGp was observed, evidence that cGpGp induces SOCS-1 and sometimes better than TBDMS-cGpGp at this particular time point was observed. These differences might be explained by kinetics and it may be that SOCS gene expression would be higher following TBDMS-cGpGp treatment when examined at an earlier time point.

Setting [6] is: 50 uM, 15 minutes pretreatment, supernatants three hours later, FIG. 18B.
[7] abbreviates: 50μM, 1 hour pretreatment, control release 262 pg/106 basophils.

Regarding `Cc1nc2ccccc2[nH]1` [2-methylbenzimidazole, reference compound], the “stability in human serum” value in [1] is on record as “stable”. In the data set “Solubility”, the “solubility in water, methanol, and acetonitrile” value was “fairly soluble”.
As to `Nc1nc2c(ncn2[C@@H]2O[C@@H]3COP(=O)(O)O[C@H]3[C@H]2O)c(=O)[nH]1` [CTL, reference compound], the “Total number lung cells” value in the data set on lung leukocytes (i.n. pretreatment 48 and 24 hr prior, lung digests 48 hrs after K. pneumoniae (kp), uninfected 2.7 × 10^7) is reported as 3.57 × 10^7. In the data set with lung leukocytes (lung digests 48 hrs after kp, uninfected 0.33 × 10^5), the “αβTcr^+, CD69^+” value is on record as 2.7 × 10^5. Further, the “DX5^+, CD69^+” value in the data set with lung leukocytes (lung digests 48 hrs after kp, uninfected 0.78 × 10^5) is recorded as 2.7 × 10^5. Further, the PMN in the data set on lung leukocytes (lung digests 48 hrs after kp, uninfected 0.8 × 10^6) was 7.35 × 10^6. The “DX5^+ (NK)” value in the data set with lung leukocytes (lung digests 48 hrs after kp, uninfected 1.3 × 10^6) was 2.5 × 10^6. Also, the “DX5^+, αβγδTcr^+(NK T^+)” value in the data set with lung leukocytes (lung digests 48 hrs after kp, uninfected 1.6 × 10^5) is 4.7 × 10^5. For the same compound, the Mono/Macrophage with lung leukocytes (lung digests 48 hrs after kp, uninfected 2.3 × 10^7) is on record as 2.88 × 10^7. For the same compound, the “αβTcr^+” value in the data set with lung leukocytes (lung digests 48 hrs after kp, uninfected 2.6 × 10^6) was 3.38 × 10^6.
Take `CN[C@@H]1C[C@H]2O[C@@](C)([C@@H]1OC)n1c3ccccc3c3c4c(c5c6ccccc6n2c5c31)C(=O)NC4` [STS, staurosporine, reference compound]: the “cell death in primary hippocampal cultures” value in [2] is listed as “caused significant cell death”.
Turning to `CC(C)(C)[Si](C)(C)O[C@@H]1[C@@H]2OP(=O)(O)OC[C@H]3O[C@@H](n4cnc5c(=O)[nH]c(N)nc54)[C@H](O)[C@@H]3OP(=O)(O)OC[C@H]2O[C@H]1n1cnc2c(=O)[nH]c(N)nc21` [TBDMS-cGpGp, 2′-O-TBDMS-c-di-GMP], the “inhibition of IL-13 induced by IL-3” value was 30-40% in the data set on human basophils [3] (10 micromolar) and 70-80% with human basophils [3] (50 micromolar, at least 5 independent experiments). Further, the “inhibition of IgE-dependent IL-4” value is 30% in the data set on human basophils [4] (setting [6]) and around 30% in the data set on human basophils [4] (setting [7]). For the same compound, the “effect on IgE-dependent histamine release” value in the data set on human basophils [5] was “essentially no effect”. Besides, the “effect on TNF-alpha and IL-10” value in the data set with pDC (alone or with CpG) was “little to no effect”. Besides, in the data set with pDC (cells from one of the 3 subjects), the “TNF-alpha secreted above the ˜400 in medium alone” value is recorded as 100-200 pg/10^6 cells. In addition, the IL-10 secretion result with pDC (used by itself, n=3) is “did not cause IL-10 secretion”. In the data set with basophils, the “time of SOCS mRNA peak” value was around 12 h. In the data set on basophils (18 h treatment), the “SOC-3 mRNA” value is given as “induced”. For the same compound, the “SOCS-1 mRNA” value in the data set on basophils (18 h treatment) is recorded as “induced”.
As to `Nc1nc2c(ncn2[C@@H]2O[C@@H]3COP(=O)(O)O[C@H]4[C@@H](O)[C@H](n5cnc6c(N)ncnc65)O[C@@H]4COP(=O)(O)O[C@H]3[C@H]2O)c(=O)[nH]1` [cGpAp], in the data set with human basophils [3] (under the conditions tested), the “effect on IL-13 induced by IL-3” value is on record as “little effect”. Also, the “inhibition of IgE-dependent IL-4” value was “evident” in the data set with human basophils [4] (setting [6]) and around 30% in the data set on human basophils [4] (setting [7]).
Turning to `Nc1nc2c(ncn2[C@@H]2O[C@@H]3COP(=O)(O)O[C@H]4[C@@H](O)[C@H](n5cnc6c(=O)[nH]cnc65)O[C@@H]4COP(=O)(O)O[C@H]3[C@H]2O)c(=O)[nH]1` [cGpIp], the “enhancement of IL-13 induced by IL-3” value in the data set on human basophils [3] (two experiments) was 25%.
